Where “and” joins values, the source holds several entries; their conditions need not be identical. Identical values can stand only once. Like-named read-outs stand apart in the source and are kept apart here.
Columns and labels:
Folsomia candida [1] = conditions: cited from earlier work
[2] = cited from earlier work
Folsomia candida [3] = assay: Folsomia candida multigeneration (P, F1, F2) survival and reproduction test in freshly spiked LUFA 2.2 soil; assay type: in vivo; conditions: nominal concentrations
Experimental: All tests were performed using natural standard LUFA 2.2 soil (LUFA Speyer, Germany), having approximately 1.6% organic carbon, water holding capacity (WHC) of 45%, and soil pH (0.01 M CaCl2) measured in a preliminary test, ranging between 5.03 and 5.87.
Stock solutions of both compounds were prepared in milli-Q water in order to spike the chemicals in the test soil and at the same time bring its moisture content to 50% of the water holding capacity (WHC). The concentration range used for both compounds was: Control −0.04 −0.12 −0.37 −1.1 −3.3 −10 mg a.s./kg dry soil. Due to the toxic effect of the neonicotinoids, the three highest concentrations had to be dropped for F1 and F2 generations. Tests were performed in 100 ml glass jars, containing 30 g moist soil, using five replicate test jars with animals, and two replicates containing approximately 15 g of soil each, without animals (soil analysis). All the test jars were weighed at the start of the test, so the water loss could be checked and replenished, if needed, on a weekly basis.
Folsomia candida Willem 1902 is a cosmopolitan arthropod, belonging to the Collembola order, which is phylogenetically related to the Insecta. The family Isotomidae have a ventral tube or collophore which is involved in the exchange of fluids with the external environment, being an important route of exposure to contaminants present in the pore water. Sexual maturity of F. candida is achieved between 21 to 24 days after hatching (sixth instar), and each individual can lay about 30 to 50 eggs per batch (Fountain and Hopkin [2005]). Adults of this species were taken from cultures at the Department of Ecological Science at the Vrije Universiteit in Amsterdam. In order to obtain synchronized animals, adults were transferred from the culture to 125 ml translucent plastic boxes with a 2 cm layer of plaster of Paris and activated charcoal (8:1), moistened with water, and left for a period of 2–3 days to lay eggs, after which they were removed. The eggs were incubated under a 12 h light/12 h dark regime at 20°C and 75% relative humidity, where they hatched. Juveniles of 10–12 days old were used for starting the test for the parental (P) generation.
Ten age-synchronized animals (10–12 days old) were added to the replicate test jars in generation P. For generations F1 and F2 the age of the animals transferred was around 8–9 days. […] The same procedure was performed for ending the tests with the F1 (after 35–36 days) and F2 (28 days) generations. At the end of the tests, the jars were flooded with water to allow the animals to float and being photographed using a Nikon COOLPIX P510 camera. The images were analysed using the software ImageJ, a Java-based processing program adjusted for counting the animals. For the P and F1 generations, only the juveniles produced in all replicates of each concentration were transferred, using a sieve, to a single container with a plaster of Paris bottom, and left overnight in a climate room, at 20 ± 2 °C, with a 75% relative humidity and a photoperiod of 16:8 h […]. On the following day, batches of 10 randomly selected animals were transferred to jars, with their respective concentration, filled with soil freshly spiked, and covered with an opaque black plastic lid, loosely attached to the rim to allow for aeration. At the start and every week a few grains of dry baker’s yeast (Instant yeast from Algist Bruggeman N.V, Ghent, Belgium) and water were added to the test vessels if needed.
All the dose-response data was analysed using the package “drc”(dose response curve) in the software R, using a general model fitting function–drm, with the option for model select (Ritz and Streibig [2005]). The endpoints LC50, addressing the effects on adult survival, and ECx, addressing sub-lethal effects on the juvenile population were expressed on the basis of nominal soil concentrations.

[4] = pH 7, 20°C; ref Jeschke et al. [2011]; cited from earlier work
[5] = Chemical analysis (LC-MSMS) and degradation of thiamethoxam in LUFA 2.2 soil; assay type: physicochemical
Experimental: The samples were analysed for thiamethoxam by the commercial certified analytical laboratory Groen Agro Control in Delfgauw, The Netherlands, using LC-MSMS. Detection limit was 0.01 mg/kg dry soil.
Using data on the measured concentrations of thiamethoxam, half-life (DT50) values were estimated assuming first order degradation kinetics. The equation C = C0 × e^−k×t was fitted to the data, with C = concentration at time t in days, C0 is concentration at t = 0 and k = degradation rate constant (day^−1). DT50 was derived as ln(2)/k.

[6] = LUFA 2.2 soil, ref De Lima e Silva et al. [2017], van Gestel et al. [2017]
[7] = Lufa 2.2 soil, ref de Lima e Silva et al. [2017]
[8] = Lufa 2.2 soil, ref van Gestel et al. [2017]
[9] = sphagnum peat (10%), kaolinite clay (20%), quartz sand (70%), ref Reynolds [2008]
[10] = F1 generation, 35-36 days exposure
[11] = F1 generation, 35-36 days exposure, listed as pure thiamethoxam
[12] = F2 generation, 28 days exposure
[13] = F2 generation, 28 days exposure, listed as pure thiamethoxam

Which results are given for O=[N+]([O-])NC1=NCCN1Cc1ccc(Cl)nc1 [Imidacloprid, imidacloprid]?
EC50 (Folsomia candida [1]; [6]): 0.26–0.29 mg a.s./kg dry soil; LC50 (Folsomia candida [1]; [6]): 0.44–0.47 mg a.s./kg dry soil; EC50 (Folsomia candida [1]; [7]): 0.26 mg a.s./kg; LC50 (Folsomia candida [1]; [7]): 0.47 mg a.s./kg; EC50 (Folsomia candida [1]; [8]): 0.29 mg a.s./kg; LC50 (Folsomia candida [1]; [8]): 0.44 mg a.s./kg; EC50 (Folsomia candida [1]; [9]): 0.26 mg a.s./kg; LC50 (Folsomia candida [1]; [9]): 0.86 mg a.s./kg

With N#C/N=C1\SCCN1Cc1ccc(Cl)nc1 [thiacloprid] as the molecule, how does the half-life in soil ([2]; ref Van Gestel et al. [2017]) read?
The half-life in soil was 10 to 12 days.

Which “EC50 (reproduction)” value (Folsomia candida [3]; [10]) does the source give for CN1COCN(Cc2cnc(Cl)s2)/C1=N\[N+](=O)[O-] [Thiamethoxam Pure, thiamethoxam] here?
The value was 0.23 (0–0.52) mg a.s./kg dry soil.

And the “LC50 (adult survival)” value (Folsomia candida [3]; [10])?
The value was >0.37 mg a.s./kg dry soil.

What about the “EC50 (reproduction)” value (Folsomia candida [3]; [11]) of the same molecule?
Its value is 0.23 mg a.s./kg dry soil.

And the “LC50 (adult survival)” value (Folsomia candida [3]; [11])?
Its value is > 0.37 mg a.s./kg dry soil.

What about the “EC10 (reproduction)” value (Folsomia candida [3]; F1 generation) of the same molecule?
Its value is 0.06 (0–0.14) mg a.s./kg dry soil.

And the “EC20 (reproduction)” value (Folsomia candida [3]; F1 generation)?
Its value is 0.09 (0–0.20) mg a.s./kg dry soil.

What about the “EC50 (reproduction)” value (Folsomia candida [3]; [12]) of the same molecule?
Its value is 0.30 (0.09–0.50) mg a.s./kg dry soil.

What about the “LC50 (adult survival)” value (Folsomia candida [3]; [12]) of the same molecule?
The value was >0.37 mg a.s./kg dry soil.

What about the “EC50 (reproduction)” value (Folsomia candida [3]; [13]) of the same molecule?
Its value is 0.30 mg a.s./kg dry soil.

And the “LC50 (adult survival)” value (Folsomia candida [3]; [13])?
Its value is > 0.37 mg a.s./kg dry soil.

What about the “EC10 (reproduction)” value (Folsomia candida [3]; F2 generation) of the same molecule?
The value was 0.15 (0–0.64) mg a.s./kg dry soil.

What about the “EC20 (reproduction)” value (Folsomia candida [3]; F2 generation) of the same molecule?
Its value is 0.20 (0–0.63) mg a.s./kg dry soil.

What about the “EC50 (reproduction)” value (Folsomia candida [3]; Parental generation, 28 days exposure (Actara 27 days)) of the same molecule?
The value was 0.23 (0.20–0.30) mg a.s./kg dry soil.

What about the “LC50 (adult survival)” value (Folsomia candida [3]; Parental generation, 28 days exposure (Actara 27 days), 95% CI in brackets) of the same molecule?
Its value is 0.32 (0.30–0.40) mg a.s./kg dry soil.

What about the “LC50 (adult survival)” value (Folsomia candida [3]; Parental generation, 28 days exposure (Actara 27 days), 95% CI in brackets, listed as pure thiamethoxam) of the same molecule?
The value was 0.32–0.35 mg a.s./kg dry soil and 0.32 mg a.s./kg dry soil.

And the “EC50 (reproduction)” value (Folsomia candida [3]; Parental generation, 28 days exposure (Actara 27 days), listed as pure thiamethoxam)?
Its value is 0.23–0.25 mg a.s./kg dry soil.

And the “EC10 (reproduction)” value (Folsomia candida [3]; Parental generation)?
The value was 0.07 (0.03–0.10) mg a.s./kg dry soil.

And the “EC20 (reproduction)” value (Folsomia candida [3]; Parental generation)?
Its value is 0.12 (0.070–0.20) mg a.s./kg dry soil.

And the half-life in soil ([2]; ref Bonmatin et al. [2015])?
The half-life in soil was ≤ 355 days.

And the “Log KOW” value [4]?
Its value is −0.13.

And the octanol-water partition coefficient [4]?
Its octanol-water partition coefficient is 0.741.

And the half-life ([5]; LUFA 2.2 soil, average over nominal 0.12-1.1 mg/kg dry soil, read-out: DT50 (half-life in soil), average (converted))?
Its half-life is 139 days.

And the “DT50 (half-life in soil), range over the concentrations” value ([5]; LUFA 2.2 soil, nominal 0.12-1.1 mg/kg dry soil)?
Its value is 112 to 165 days.

What about the half-life ([5]; LUFA 2.2 soil, nominal 0.12-1.1 mg/kg dry soil, read-out: DT50 (half-life in soil), range over the concentrations) of the same molecule?
Its half-life is 112 to 156 days.

And the “Concentration in soil as % of the nominal” value ([5]; first day of the experiment (t = 0), pure and Actara treatments together)?
Its value is 75–100%.

What about the half-life at 0.12 mg/kg dry soil ([5]; nominal 0.12 mg/kg dry soil, LUFA 2.2 soil, first order degradation kinetics, read-out: DT50 (half-life in soil) (converted)) of the same molecule?
The half-life at 0.12 mg/kg dry soil was 165 days.

What about the half-life at 0.37 mg/kg dry soil ([5]; nominal 0.37 mg/kg dry soil, LUFA 2.2 soil, first order degradation kinetics, read-out: DT50 (half-life in soil) (converted)) of the same molecule?
The half-life at 0.37 mg/kg dry soil was 140 days.

What about the half-life at 1.1 mg/kg dry soil ([5]; nominal 1.1 mg/kg dry soil, LUFA 2.2 soil, first order degradation kinetics, read-out: DT50 (half-life in soil) (converted)) of the same molecule?
The half-life at 1.1 mg/kg dry soil was 112 days.

What about the “Recovery Rate” value ([5]; t = 0, nominal 0.12 mg/kg dry soil) of the same molecule?
The value was 75%.

What about the “Measured Concentration of thiamethoxam in soil” value (shortened to “Measured Concentration”) ([5]; t = 0, nominal 0.12 mg/kg dry soil, LUFA 2.2 soil) of the same molecule?
The value was 0.09 mg/kg dry soil.

And the “Recovery Rate” value ([5]; t = 0, nominal 0.37 mg/kg dry soil)?
The value was 84%.

What about the “Measured Concentration” value ([5]; t = 0, nominal 0.37 mg/kg dry soil, LUFA 2.2 soil) of the same molecule?
The value was 0.31 mg/kg dry soil.

What about the “Recovery Rate” value ([5]; t = 0, nominal 1.1 mg/kg dry soil) of the same molecule?
Its value is 85%.

What about the “Measured Concentration” value ([5]; t = 0, nominal 1.1 mg/kg dry soil, LUFA 2.2 soil) of the same molecule?
The value was 0.94 mg/kg dry soil.

And the “Recovery Rate” value ([5]; t = 28 days, nominal 0.12 mg/kg dry soil)?
The value was 66%.

And the “Measured Concentration” value ([5]; t = 28 days, nominal 0.12 mg/kg dry soil, LUFA 2.2 soil)?
The value was 0.08 mg/kg dry soil.

And the “Measured Concentration” value ([5]; t = 28 days, nominal 0.37 mg/kg dry soil, LUFA 2.2 soil)?
The value was 0.27 mg/kg dry soil.

What about the “Recovery Rate” value ([5]; t = 28 days, nominal 1.1 mg/kg dry soil) of the same molecule?
Its value is 72%.

And the “Measured Concentration” value ([5]; t = 28 days, nominal 1.1 mg/kg dry soil, LUFA 2.2 soil)?
Its value is 0.79 mg/kg dry soil.

Source: paper PMC6132986, “Assessing the toxicity of thiamethoxam, in natural LUFA 2.2 soil, through three generations of Folsomia candida” (Ecotoxicology (London, England), 2018)
